Experimental data: patent US20200002275A1, “Dimethyl Farnesyl Amine Oxide And Its Use As Surfactant Or Wetting Agent” (Clariant International Ltd., priority 2017, published 2020)

Key:
Format in all cases: physicochemical
[1] = Determination of wetting ability by immersion (modified EN 1772:2000); conditions: 0.1 wt.-% aqueous solution, room temperature, raw cotton disc, mean of five measurements
Description: This measurement was modified based on the European Standard EN 1772:2000. A 500 mL 0.1 wt.-% aqueous solution of test surfactant was prepared. The test solution was kept at room temperature to stabilize for 1 h. A raw cotton disc (30 mm diameter, wfk Testgewebe GmbH), was clamped in a gripper and immersed in the solution. Stopwatch was started at the moment when the lower part of the disc touched the solution and stopped when the disc began to sink of its own accord. The arithmetic mean of five measurements was calculated and recorded as the wetting time.

[2] = Solubility in water (observation)
[3] = Dynamic surface tension measurements, maximum bubble pressure method; conditions: deionized water, 25° C.
Description: These measurements were conducted with the Krüss PocketDyne BP2100, which utilized the maximum bubble pressure method of surface tension analysis. Surface tension profiles of dimethyl farnesyl amine oxide and diethyl farnesyl amine oxide at the desired concentration were measured in deionized water at 25° C.
The results in table 2 are given in mN/m.

[4] = Measurement of foam creation and decay on a SITA foam tester; conditions: 0.01 g/L surfactant solution, 1200 rpm, room temperature, 5 minutes foam creation; listed as dimethyl farnesyl amine oxide
Description: This method monitors foam generation and decay at room temperature over time. A surfactant solution of 0.01 g/L was pumped into the SITA foam tester R2000. The speed of the stirring plate was set to 1200 rpm. Foam creation was recorded in a 10 second interval for 5 minutes and decay was recorded in a 30 second interval for 15 minutes at room temperature.

[5] = CMC (critical micelle concentration) and surface tension measurements, Du Noüy ring method; conditions: 25° C., Krüss Tensiometer K 100 (Ring)
Description: CMC (critical micelle concentration) and surface tension measurements These measurements were conducted with the Krüss Tensiometer K 100 (Ring), which utilized the Du Noüy ring method. Surface tension profiles of the amine oxides were measured at 25° C.

Wetting time [1] [s] | Surface tension at surface age 20 ms ([3]; 0.3 g/L) [mN/m] | Surface tension at surface age 50 ms ([3]; 0.3 g/L) [mN/m] | Surface tension at surface age 100 ms ([3]; 0.3 g/L) [mN/m] | Surface tension at surface age 200 ms ([3]; 0.3 g/L) [mN/m] | Surface tension at surface age 400 ms ([3]; 0.3 g/L) [mN/m] | Surface tension at surface age 20 ms ([3]; 1.0 g/L) [mN/m] | Surface tension at surface age 50 ms ([3]; 1.0 g/L) [mN/m] | Surface tension at surface age 100 ms ([3]; 1.0 g/L) [mN/m] | Surface tension at surface age 200 ms ([3]; 1.0 g/L) [mN/m] | Surface tension at surface age 400 ms ([3]; 1.0 g/L) [mN/m] | Surface tension at surface age 20 ms ([3]; 3.0 g/L) [mN/m] | Surface tension at surface age 50 ms ([3]; 3.0 g/L) [mN/m] | Surface tension at surface age 100 ms ([3]; 3.0 g/L) [mN/m] | Surface tension at surface age 200 ms ([3]; 3.0 g/L) [mN/m] | Surface tension at surface age 400 ms ([3]; 3.0 g/L) [mN/m] | Structure (SMILES) | further results
54 | 66.7 | 65.6 | 64.3 | 65.7 | 65.0 | 60.0 | 62.0 | 57.3 | 56.0 | 54.9 | 55.2 | 52.7 | 51.8 | 50.6 | 51.6 | CC[N+]([O-])(CC)CC=C(C)CCC=C(C)CCC=C(C)C [Diethyl, Diethyl Farnesyl Amine Oxide, reference compound] | solubility in water [2]: very poor
28 | 59.9 | 56.9 | 52.9 | 51.5 | 49.5 | 43.8 | 40.7 | 39.3 | 38.1 | 36.9 | 35.3 | 33.2 | 32.5 | 32.1 | 31.5 | CC(C)=CCC/C(C)=C/CC/C(C)=C/C[N+](C)(C)[O-] [Dimethyl, Dimethyl Farnesyl Amine Oxide] | Foam ability [4]: no foam at all; C20: concentration of surfactant to reduce the surface tension of water by 20 mN/m [5]: 0.018 g/L; CMC [5]: 1.09 g/L; Surface tension [5]: 28.7 mN/m
